Data: US20040241755A1, “Human cell assay to determine effect of sample compounds on Col2 enhancer expression” (Pfizer Inc., priority 2003, published 2004)

Legend:
Assay type in all cases: cell-based, human
[1] = test system: 48 bp Col2a1 enhancer; assay: 48 bp Col2a1 enhancer luciferase reporter transfection assay in SW1353 cells; conditions: for relief of cytokine mediated inhibition of enhancer expression by co-treatment: co-treatment with TNFα or IL-1β, SW1353 cells; for reduction of enhancer driven luciferase expression: 10 ng/ml; for effect on Sox9 activity / responsiveness of SW1353 cells transfected with the 48 bp Col2a1 enhancer: concentration not given, data not shown
Experimental: Reagents were obtained from Invitrogen unless otherwise noted. SW1353 human chondrosarcoma cells (ATCC #HTB-94) were grown in DMEM 10% FBS 10 ug/ml Gentamicin and passaged (2 times a week) using with 0.25% Trypsin-EDTA.
Cells were plated at ˜10^6 cells per flask into a T-75 in 10 ml growth media or an equivalent based on culture vessel surface area, 24 hours prior to transfection. For each transfection, 24 ul of Transit (PanVera) was diluted into 250 ul OptiMEM and 12 ug of reporter plasmid Col2a1 enhancer construct (48 bp Col2a1, was added. After 15-30 minute incubation, growth media was removed from the cells, and the DNA-transfection reagent complexes diluted to a final volume of 10 ml with OptiMEM and added to the cells. Transfection media was replaced with fresh media after 7 hours. 24 hours post transfection the cells were treated with media alone or indicated factors. Cells were harvested 48 hours post-transfection and luciferase activity measured using the LucLite and the TopCount LSC plate reader (Packard).
We analyzed the activity of the 48 bp Col2a1 enhancer construct (48 bp Col2a1) in transfected SW1353 cells. SW1353 cells were transfected with a constant amount of reporter (0.25 ug), with or without increasing amounts of the Sox9 expression construct or empty vector.

[2] = test system: Sox9 mRNA; assay: Sox9 mRNA expression in SW1353 cells by real time quantitative PCR (TaqMan); conditions: 48 hours, relative to GAPDH
Experimental: RNA was prepared from 75 cm dishes using RNeasy Kits with DNAse treatment (Qiagen) according to the manufacturer's protocol except a second application of DNase was used. cDNA was prepared from 10-20 ul of RNA (1-4 ug) using random hexamer primers and PE Biosystems Reverse Transcription reagents. Taqman reactions used 8 ul cDNA and 2× PE Universal PCR Master Mix (PE Biosystems), 900 nM PCR primers and 200 nM FAM-TAMRA probe. Reactions (50 ul) were cycled and quantified using the PE 5700 with standard conditions for 45 cycles. The data was analyzed using GeneAmp5700 software Mix (PE Biosystems), adjusting the threshold to linear range for all samples. The ΔCt is calculated by subtracting normalizer (GAPDH) from corresponding gene-specific values. The ΔΔCt is calculated by subtracting treated ΔCt from control ΔCt. Fold induction is determined by calculating 2^ΔΔCt. Data is reported as % increase over control sample.
The effect of chondrocyte growth factors as well as inhibitory cytokines on the expression of Sox9 RNA in SW1353 cells using real time quantitative PCR (TaqMan, P E Applied Biosystems) was determined. Cells were cultured and treated with growth factors or cytokines as described above. After 48 hours cells were harvested and RNA prepared. A custom Sox9 primer probe set was validated by an efficiency plot over several logs and relative Sox 9 expression was quantified relative to GAPDH.

[3] = test system: IL-8; assay: Induction of IL-8 expression in SW1353 cells; conditions: for stimulation of expression of IL-8: 10 ng/ml
Experimental: SW1353 cells were transfected with the 48 bp Col2a1 reporter and then treated with vehicle, TNFα (10 ng/ml) or IL-1β (10 ng/ml) (FIG. 2A).
The effect of increasing IL-1β doses on the two response was determined. […] Therefore, SW1353 cells appear to respond to a dynamic range of IL-1β levels with selective functional responses, making them potentially useful in models of both osteoarthritis and rheumatoid diseases.

[4] = test system: matrix metalloproteases; assay: Stimulation of matrix metalloprotease expression in SW1353 cells; conditions: data not shown

Molecule: FGF-1: pro-chondrogenic fibroblast growth factor
- relief of cytokine mediated inhibition of enhancer expression by co-treatment [1]: partially relieved
- increase in expression of Sox9 mRNA [2]: ~2 fold

Molecule: FGF-2: pro-chondrogenic fibroblast growth factor
- relief of cytokine mediated inhibition of enhancer expression by co-treatment [1]: partially relieved
- increase in expression of Sox9 mRNA [2]: approximately 1.5 fold

Molecule: IL-1β: pro-inflammatory cytokine
- reduction of enhancer driven luciferase expression ([1]; transfected SW1353 cells): ~50%
- stimulation of Col2 enhancer activity at very low levels ([1]; 0.1-1 pg/ml, transfected SW1353 cells): about 150%
- concentration giving maximal inhibition (repression) of Col2 enhancer activity ([1]; transfected SW1353 cells): 20 pg/mL
- decrease in Sox9 expression [2]: 60%
- stimulation of expression of IL-8 [3]: stimulate
- induction of IL-8 ([3]; IL-1 concentrations below 20 pg/ml): not detected
- stimulation of expression of matrix metalloproteases [4]: stimulate

Molecule: PTHrP: parathyroid hormone-related peptide
- effect on Sox9 activity / responsiveness of SW1353 cells transfected with the 48 bp Col2a1 enhancer [1]: not seen an effect

Molecule: TGFα: growth factor to which SW1353 cells appear unresponsive
- effect on Sox9 activity / responsiveness of SW1353 cells transfected with the 48 bp Col2a1 enhancer [1]: unresponsive

Molecule: TNFα
- reduction of enhancer driven luciferase expression ([1]; transfected SW1353 cells): approximately 60%
- decrease in Sox9 expression [2]: 45%
- stimulation of expression of IL-8 [3]: stimulate
- stimulation of expression of matrix metalloproteases [4]: stimulate

B1: BMP-6: BMP growth factor (protein, UniProt P22004 375-513, looked up)
Bone morphogenetic protein 6: SASSRRRQQSRNRSTQSQDVARVSSASDYNSSELKTACRKHELYVSFQDLGWQDWIIAPKGYAANYCDGECSFPLNAHMNATNHAIVQTLVHLMNPEYVPKPCCAPTKLNAISVLYFDDNSNVILKKYRNMVVRACGCH
- effect on Sox9 activity / responsiveness of SW1353 cells transfected with the 48 bp Col2a1 enhancer [1]: unresponsive

B2: BMP-4: BMP growth factor (protein, UniProt P12644 293-408, looked up)
Bone morphogenetic protein 4: SPKHHSQRARKKNKNCRRHSLYVDFSDVGWNDWIVAPPGYQAFYCHGDCPFPLADHLNSTNHAIVQTLVNSVNSSIPKACCVPTELSAISMLYLDEYDKVVLKNYQEMVVEGCGCR
- effect on Sox9 activity / responsiveness of SW1353 cells transfected with the 48 bp Col2a1 enhancer [1]: unresponsive

B3: FGF-7: fibroblast growth factor which signals exclusively through the epithelial-cell restricted FGFRIIIb receptor (protein, UniProt P21781 32-194, looked up)
Fibroblast growth factor 7: CNDMTPEQMATNVNCSSPERHTRSYDYMEGGDIRVRRLFCRTQWYLRIDKRGKVKGTQEMKNNYNIMEIRTVAVGIVAIKGVESEFYLAMNKEGKLYAKKECNEDCNFKELILENHYNTYASAKWTHNGGEMFVALNQKGIPVRGKKTKKEQKTAHFLPMAIT
- increase in expression of the 48 bp Col2a1 enhancer ([1]; 200 ng/ml added to transfected SW1353 cultures): no effect
